Test results published in patent publication US20210101874A1, “MICROBIOCIDAL OXADIAZOLE DERIVATIVES” (SYNGENTA PARTICIPATIONS AG, priority 2017, published 2021).

The compounds below were run on Puccinia recondita f. sp. Tritici (assay: Puccinia recondita f. sp. tritici / wheat / leaf disc preventative (brown rust)). Details: foliar, 200 ppm in the applied formulation, wheat leaf segments cv. Kanzler, inoculated 1 day after application, compared to untreated, assessed 7 to 9 days after application, read-out: disease control.
Format: in vivo
Procedure: Leaf disks or leaf segments of various plant species are cut from plants grown in a greenhouse. The cut leaf disks or segments are placed in multiwell plates (24-well format) onto water agar. The leaf disks are sprayed with a test solution before (preventative) or after (curative) inoculation. Compounds to be tested are prepared as DMSO solutions (max. 10 mg/ml) which are diluted to the appropriate concentration with 0.025% Tween20 just before spraying. The inoculated leaf disks or segments are incubated under defined conditions (temperature, relative humidity, light, etc.) according to the respective test system. A single evaluation of disease level is carried out 3 to 14 days after inoculation, depending on the pathosystem. Percent disease control relative to the untreated check leaf disks or segments is then calculated. Wheat leaf segments cv. Kanzler were placed on agar in multiwell plates (24-well format) and sprayed with the formulated test compound diluted in water. The leaf disks were inoculated with a spore suspension of the fungus 1 day after application. The inoculated leaf segments were incubated at 19° C. and 75% relative humidity (rh) under a light regime of 12 hours light/12 hours darkness in a climate cabinet and the activity of a compound was assessed as percent disease control compared to untreated when an appropriate level of disease damage appears in untreated check leaf segments (7 to 9 days after application). The following compounds at 200 ppm in the applied formulation give at least 80% disease control in this test when compared to untreated control leaf disks under the same conditions, which show extensive disease development.
`CCNS(=O)(=O)N(Cc1ccc(-c2noc(C(F)(F)F)n2)cc1)OC` [Compound 1.18, 3-[4-[[ethylsulfamoyl (methoxy)amino]methyl]phenyl]-5-(trifluoromethyl)-1,2,4-oxadiazole] was tested, and the pest or weed control at 200 ppm was no less than 80%. `CCCNS(=O)(=O)N(Cc1ccc(-c2noc(C(F)(F)F)n2)cc1)OC` [Compound 1.22, 3-[4-[[methoxy (propylsulfamoyl)amino]methyl]phenyl]-5-(trifluoromethyl)-1,2,4-oxadiazole] gave a pest or weed control at 200 ppm of no less than 80%. Work on `CCN(Cc1ccc(-c2noc(C(F)(F)F)n2)cc1)S(=O)(=O)N1CCCC1` [Compound 1.32, N-ethyl-N-[[4-[5-(trifluoromethyl)-1,2,4-oxadiazol-3-yl]phenyl]methyl] pyrrolidine-1-sulfonamide] yielded a pest or weed control at 200 ppm of no less than 80%. `CCN(Cc1ccc(-c2noc(C(F)(F)F)n2)cc1)S(=O)(=O)CCC(=O)OC` [Compound 1.36, methyl 3-[ethyl-[[4-[5-(trifluoromethyl)-1,2,4-oxadiazol-3-yl]phenyl]methyl]sulfamoyl]propanoate] gave a pest or weed control at 200 ppm of no less than 80%. With `CN(Cc1ccc(-c2noc(C(F)(F)F)n2)cc1)S(=O)(=O)N1CCCC1` [Compound 1.44, N-methyl-N-[[4-[5-(trifluoromethyl)-1,2,4-oxadiazol-3-yl]phenyl]methyl] pyrrolidine-1-sulfonamide] the pest or weed control at 200 ppm was no less than 80%. `COC(=O)CS(=O)(=O)N(Cc1ccc(-c2noc(C(F)(F)F)n2)cc1)OC` [Compound 1.57, methyl 2-[methoxy-[[4-[5-(trifluoromethyl)-1,2,4-oxadiazol-3-yl]phenyl]methyl]sulfamoyl]acetate] showed a pest or weed control at 200 ppm of no less than 80%. In the case of `CON(Cc1ccc(-c2noc(C(F)(F)F)n2)cc1)S(=O)(=O)c1ccn(C)n1` [Compound 1.88, N-methoxy-1-methyl-N-[[4-[5-(trifluoromethyl)-1,2,4-oxadiazol-3-yl]phenyl]methyl] pyrazole-3-sulfonamide], the pest or weed control at 200 ppm is reported as no less than 80%. Compound `O=S(=O)(Cc1ccccc1)NCc1ccc(-c2noc(C(F)(F)F)n2)c(F)c1` [Compound 3.22, N-[[3-fluoro-4-[5-(trifluoromethyl)-1,2,4-oxadiazol-3-yl]phenyl]methyl]-1-phenyl-methanesulfonamide] has a pest or weed control at 200 ppm of no less than 80%. Work on `O=S(=O)(Cc1ccccc1)NCc1ccc(-c2noc(C(F)(F)F)n2)cc1F` [Compound 3.23, N-[[2-fluoro-4-[5-(trifluoromethyl)-1,2,4-oxadiazol-3-yl]phenyl]methyl]-1-phenyl-methanesulfonamide] yielded a pest or weed control at 200 ppm of no less than 80%. Compound `O=S(=O)(NCc1ccc(-c2noc(C(F)(F)F)n2)cc1F)c1ccccc1` [Compound 3.32, N-[[2-fluoro-4-[5-(trifluoromethyl)-1,2,4-oxadiazol-3-yl]phenyl]methyl] benzenesulfonamide] has a pest or weed control at 200 ppm of no less than 80%.

What follows are compounds tested on Glomerella lagenarium (Colletotrichum lagenarium) (assay: Glomerella lagenarium (Colletotrichum lagenarium) liquid culture / cucumber / preventative (anthracnose)). Details: Colletotrichum orbiculare; 20 ppm in the applied formulation; conidia in PDB nutrient broth, 24° C.; 3 to 4 days after application; compared to untreated; read-out: disease control (inhibition of growth measured photometrically).
Format: cell-based
Procedure: Mycelia fragments or conidia suspensions of a fungus prepared either freshly from liquid cultures of the fungus or from cryogenic storage, are directly mixed into nutrient broth. DMSO solutions of the test compound (max. 10 mg/ml) are diluted with 0.025% Tween20 by a factor of 50 and 10 µl of this solution is pipetted into a microtiter plate (96-well format). The nutrient broth containing the fungal spores/mycelia fragments is then added to give an end concentration of the tested compound. The test plates are incubated in the dark at 24° C. and 96% relative humidity. The inhibition of fungal growth is determined photometrically after 2 to 7 days, depending on the pathosystem, and percent antifungal activity relative to the untreated check is calculated. Conidia of the fungus from cryogenic storage are directly mixed into nutrient broth (PDB—potato dextrose broth). After placing a (DMSO) solution of test compound into a microtiter plate (96-well format), the nutrient broth containing the fungal spores is added. The test plates are incubated at 24° C. and the inhibition of growth is measured photometrically 3 to 4 days after application. The following compounds at 20 ppm in the applied formulation give at least 80% disease control in this test when compared to untreated control under the same conditions, which show extensive disease development.
For `O=S(=O)(Cc1ccccc1)N(Cc1ccc(-c2noc(C(F)(F)F)n2)cc1)C1CC1` [Compound 1.4, N-cyclopropyl-1-phenyl-N-[[4-[5-(trifluoromethyl)-1,2,4-oxadiazol-3-yl]phenyl]methyl] methanesulfonamide], the inhibition at 20 ppm was no less than 80%. For `CCNS(=O)(=O)N(Cc1ccc(-c2noc(C(F)(F)F)n2)cc1)OC` [Compound 1.18, 3-[4-[[ethylsulfamoyl (methoxy)amino]methyl]phenyl]-5-(trifluoromethyl)-1,2,4-oxadiazole], the inhibition at 20 ppm was no less than 80%. In the case of `CCCNS(=O)(=O)N(Cc1ccc(-c2noc(C(F)(F)F)n2)cc1)OC` [Compound 1.22, 3-[4-[[methoxy (propylsulfamoyl)amino]methyl]phenyl]-5-(trifluoromethyl)-1,2,4-oxadiazole], the inhibition at 20 ppm is reported as no less than 80%. `CCN(Cc1ccc(-c2noc(C(F)(F)F)n2)cc1)S(=O)(=O)c1ccccc1` [Compound 1.24, N-ethyl-N-[[4-[5-(trifluoromethyl)-1,2,4-oxadiazol-3-yl]phenyl]methyl] benzenesulfonamide] was tested, and the inhibition at 20 ppm was no less than 80%. `CCCN(Cc1ccc(-c2noc(C(F)(F)F)n2)cc1)S(=O)(=O)CCC` [Compound 1.26, N-propyl-N-[[4-[5-(trifluoromethyl)-1,2,4-oxadiazol-3-yl]phenyl]methyl] propane-1-sulfonamide] was tested, and the inhibition at 20 ppm was no less than 80%. Work on `CCN(Cc1ccc(-c2noc(C(F)(F)F)n2)cc1)S(=O)(=O)CC1CC1(Cl)Cl` (stereo not shown) [Compound 1.31, 1-(2,2-dichlorocyclopropyl)-N-ethyl-N-[[4-[5-(trifluoromethyl)-1,2,4-oxadiazol-3-yl]phenyl]methyl] methanesulfonamide] yielded an inhibition at 20 ppm of no less than 80%. Work on `CCN(Cc1ccc(-c2noc(C(F)(F)F)n2)cc1)S(=O)(=O)N1CCCC1` [Compound 1.32, N-ethyl-N-[[4-[5-(trifluoromethyl)-1,2,4-oxadiazol-3-yl]phenyl]methyl] pyrrolidine-1-sulfonamide] yielded an inhibition at 20 ppm of no less than 80%. `CCN(Cc1ccc(-c2noc(C(F)(F)F)n2)cc1)S(=O)(=O)CCC(=O)OC` [Compound 1.36, methyl 3-[ethyl-[[4-[5-(trifluoromethyl)-1,2,4-oxadiazol-3-yl]phenyl]methyl]sulfamoyl]propanoate] showed an inhibition at 20 ppm of no less than 80%. For `COCCS(=O)(=O)N(Cc1ccc(-c2noc(C(F)(F)F)n2)cc1)OC` [Compound 1.40, N,2-dimethoxy-N-[[4-[5-(trifluoromethyl)-1,2,4-oxadiazol-3-yl]phenyl]methyl] ethanesulfonamide], the inhibition at 20 ppm was no less than 80%. With `CN(Cc1ccc(-c2noc(C(F)(F)F)n2)cc1)S(=O)(=O)N1CCCC1` [Compound 1.44, N-methyl-N-[[4-[5-(trifluoromethyl)-1,2,4-oxadiazol-3-yl]phenyl]methyl] pyrrolidine-1-sulfonamide] the inhibition at 20 ppm was no less than 80%. Work on `CCCCS(=O)(=O)N(C)Cc1ccc(-c2noc(C(F)(F)F)n2)cc1` [Compound 1.55, N-methyl-N-[[4-[5-(trifluoromethyl)-1,2,4-oxadiazol-3-yl]phenyl]methyl] butane-1-sulfonamide] yielded an inhibition at 20 ppm of no less than 80%. Work on `CNS(=O)(=O)N(Cc1ccc(-c2noc(C(F)(F)F)n2)cc1)OC` [Compound 1.58, 3-[4-[[methoxy(methylsulfamoyl)amino]methyl]phenyl]-5-(trifluoromethyl)-1,2,4-oxadiazole] yielded an inhibition at 20 ppm of no less than 80%. `CCCN(Cc1ccc(-c2noc(C(F)(F)F)n2)cc1)S(=O)(=O)CCC(=O)OC` [Compound 1.72, methyl 3-[propyl-[[4-[5-(trifluoromethyl)-1,2,4-oxadiazol-3-yl]phenyl]methyl]sulfamoyl]propanoate] gave an inhibition at 20 ppm of no less than 80%. In the case of `C/C=C/S(=O)(=O)N(CCC)Cc1ccc(-c2noc(C(F)(F)F)n2)cc1` [Compound 1.75, (E)-N-propyl-N-[[4-[5-(trifluoromethyl)-1,2,4-oxadiazol-3-yl]phenyl]methyl] prop-1-ene-1-sulfonamide], the inhibition at 20 ppm is reported as no less than 80%. Work on `CCCN(Cc1ccc(-c2noc(C(F)(F)F)n2)cc1)S(=O)(=O)Cc1ccccc1` [Compound 1.77, 1-phenyl-N-propyl-N-[[4-[5-(trifluoromethyl)-1,2,4-oxadiazol-3-yl]phenyl]methyl] methanesulfonamide] yielded an inhibition at 20 ppm of no less than 80%. In the case of `CCCN(Cc1ccc(-c2noc(C(F)(F)F)n2)cc1)S(=O)(=O)CC` [Compound 1.78, N-propyl-N-[[4-[5-(trifluoromethyl)-1,2,4-oxadiazol-3-yl]phenyl]methyl] ethanesulfonamide], the inhibition at 20 ppm is reported as no less than 80%. Compound `C=CCS(=O)(=O)N(Cc1ccc(-c2noc(C(F)(F)F)n2)cc1)OC` [Compound 1.92, N-methoxy-N-[[4-[5-(trifluoromethyl)-1,2,4-oxadiazol-3-yl]phenyl]methyl] prop-2-ene-1-sulfonamide] has an inhibition at 20 ppm of no less than 80%. `C/C=C/S(=O)(=O)N(Cc1ccc(-c2noc(C(F)(F)F)n2)cc1)OC` [Compound 1.94, (E)-N-methoxy-N-[[4-[5-(trifluoromethyl)-1,2,4-oxadiazol-3-yl]phenyl]methyl] prop-1-ene-1-sulfonamide] was tested, and the inhibition at 20 ppm was no less than 80%. `CC(C)N(Cc1ccc(-c2noc(C(F)(F)F)n2)cc1)S(=O)(=O)Cc1ccccc1` [Compound 1.99, N-isopropyl-1-phenyl-N-[[4-[5-(trifluoromethyl)-1,2,4-oxadiazol-3-yl]phenyl]methyl) methanesulfonamide] was tested, and the inhibition at 20 ppm was no less than 80%. With `COC(=O)CS(=O)(=O)NCc1ccc(-c2noc(C(F)(F)F)n2)cc1` [Compound 2.11, methyl 2-[[4-[5-(trifluoromethyl)-1,2,4-oxadiazol-3-yl]phenyl]methyl-sulfamoyl] acetate] the inhibition at 20 ppm was no less than 80%. Work on `COC(=O)CS(=O)(=O)NCc1ccc(-c2noc(C(F)(F)F)n2)c(F)c1` [Compound 2.20, methyl 2-[[3-fluoro-4-[5-(trifluoromethyl)-1,2,4-oxadiazol-3-yl]phenyl]methyl-sulfamoyl] acetate] yielded an inhibition at 20 ppm of no less than 80%. `CCCCS(=O)(=O)NCc1ccc(-c2noc(C(F)(F)F)n2)cc1F` [Compound 2.23, N-[[2-fluoro-4-[5-(trifluoromethyl)-1,2,4-oxadiazol-3-yl]phenyl]methyl] butane-1-sulfonamide] was tested, and the inhibition at 20 ppm was no less than 80%. With `Cc1ccc(S(=O)(=O)NCc2ccc(-c3noc(C(F)(F)F)n3)c(F)c2)s1` [Compound 3.15, N-[[3-fluoro-4-[5-(trifluoromethyl)-1,2,4-oxadiazol-3-yl]phenyl]methyl]-5-methyl-thiophene-2-sulfonamide] the inhibition at 20 ppm was no less than 80%. In the case of `Cc1ccc(S(=O)(=O)NCc2ccc(-c3noc(C(F)(F)F)n3)cc2F)s1` [Compound 3.25, N-[[2-fluoro-4-[5-(trifluoromethyl)-1,2,4-oxadiazol-3-yl]phenyl]methyl]-5-methyl-thiophene-2-sulfonamide], the inhibition at 20 ppm is reported as no less than 80%.
